Data on 38 compounds can be found in patent publication US10377753B2, “Substituted 4-azaindoles and their use as GluN2B receptor modulators” (Janssen Pharmaceutica NV, priority 2015, dated 2019).

As a reminder, the IC50 is the concentration needed to halve the response being measured. In general, pIC50 refers to the IC50 on a negative log10 scale, so that one unit is a factor of ten.

Where a name gives a salt, the structure may show the parent alone. Bounds are passed on as bounds.

In this experiment the target is cloned human NR1/NR2B ion channels (Homo sapiens (Human), UniProt Q05586+Q13224). As to the kind of experiment: HNR2BC: effects of test articles on cloned human NR1/NR2B ion channels expressed in mammalian cells (FLIPR calcium flux). The class given is cell-based. Conditions: Table 5. Summed up: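 In a stable Tet-On-induced cell line expressing human GluN1/GluN2B, Calcium 5-loaded cells were preincubated 5 min with compound, then stimulated 5 min with glutamate at ~EC80 plus 10 μM glycine, in pH 7.4 HEPES buffer. FLIPR calcium fluorescence was normalized to control wells.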
Background: Calcium flux is commonly read through the fluorescence of an indicator in the cells.

[1] abbreviates: cloned human NR1/NR2B ion channels.

cloned human NR1/NR2B ion channels, sequence (Q13224 27-1484, other chains not shown): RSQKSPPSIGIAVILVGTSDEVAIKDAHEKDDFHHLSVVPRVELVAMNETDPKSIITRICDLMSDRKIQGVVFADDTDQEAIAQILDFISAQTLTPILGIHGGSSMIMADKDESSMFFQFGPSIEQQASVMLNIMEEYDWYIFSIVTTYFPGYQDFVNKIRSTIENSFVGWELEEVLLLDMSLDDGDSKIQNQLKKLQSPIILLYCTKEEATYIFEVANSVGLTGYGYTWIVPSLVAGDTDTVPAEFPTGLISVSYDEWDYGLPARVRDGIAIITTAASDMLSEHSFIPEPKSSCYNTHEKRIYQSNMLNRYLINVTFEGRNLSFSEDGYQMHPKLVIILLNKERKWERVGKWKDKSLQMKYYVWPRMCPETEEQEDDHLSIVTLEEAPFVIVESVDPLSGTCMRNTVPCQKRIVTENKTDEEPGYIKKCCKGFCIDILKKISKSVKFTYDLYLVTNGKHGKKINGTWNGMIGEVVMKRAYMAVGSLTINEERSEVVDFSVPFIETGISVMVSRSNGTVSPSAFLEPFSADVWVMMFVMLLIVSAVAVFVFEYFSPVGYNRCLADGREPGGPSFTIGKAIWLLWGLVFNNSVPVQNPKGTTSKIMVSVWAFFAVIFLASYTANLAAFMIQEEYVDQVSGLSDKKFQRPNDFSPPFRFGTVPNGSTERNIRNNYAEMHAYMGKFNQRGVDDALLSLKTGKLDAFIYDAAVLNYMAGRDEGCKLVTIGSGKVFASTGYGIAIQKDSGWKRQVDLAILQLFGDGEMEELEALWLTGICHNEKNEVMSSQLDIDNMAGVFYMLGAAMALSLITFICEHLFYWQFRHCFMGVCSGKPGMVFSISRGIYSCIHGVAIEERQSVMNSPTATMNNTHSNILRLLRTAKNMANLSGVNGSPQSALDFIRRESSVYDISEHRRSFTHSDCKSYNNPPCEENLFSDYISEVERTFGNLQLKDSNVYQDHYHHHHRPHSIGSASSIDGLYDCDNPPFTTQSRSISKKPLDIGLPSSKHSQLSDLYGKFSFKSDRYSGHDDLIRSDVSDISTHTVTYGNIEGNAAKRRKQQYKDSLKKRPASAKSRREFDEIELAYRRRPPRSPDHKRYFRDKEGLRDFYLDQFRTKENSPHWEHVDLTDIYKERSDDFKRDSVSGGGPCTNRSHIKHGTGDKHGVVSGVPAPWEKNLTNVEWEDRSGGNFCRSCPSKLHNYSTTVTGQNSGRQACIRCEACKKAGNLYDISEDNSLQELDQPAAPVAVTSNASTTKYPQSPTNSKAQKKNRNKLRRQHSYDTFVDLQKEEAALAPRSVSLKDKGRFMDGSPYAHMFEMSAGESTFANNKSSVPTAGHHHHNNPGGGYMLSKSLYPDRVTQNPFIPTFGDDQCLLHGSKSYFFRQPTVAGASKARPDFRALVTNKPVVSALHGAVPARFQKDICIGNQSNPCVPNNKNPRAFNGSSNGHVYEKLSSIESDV

`O=C(Cn1cc(Cl)c2ncc(-c3cccc(Cl)c3)cc21)N1CC(F)C1` [Example 545, 2-[3-Chloro-6-(3-chlorophenyl)pyrrolo[3,2-b]pyridin-1-yl]-1-(3-fluoroazetidin-1-yl)ethanone]: the IC50 under setting [1] was 12.6 nM.
Consider `O=C(Cn1ccc2ncc(-c3cccc(F)c3F)cc21)N1CCC1` [Example 134, 1-(Azetidin-1-yl)-2-[6-(2,3-difluorophenyl)pyrrolo[3,2-b]pyridin-1-yl]ethanone], for which the half-inhibitory concentration (IC50) (cloned human NR1/NR2B) was 31.6 nM.
Regarding `Cc1cc(-c2cnc3ccn(CC(=O)N4CC(F)(F)C4)c3c2)ccc1F` [Example 259, 1-(3,3-Difluoroazetidin-1-yl)-2-[6-(4-fluoro-3-methyl-phenyl)pyrrolo[3,2-b]pyridin-1-yl]ethanone trifluoroacetate salt], the IC50 (cloned human NR1/NR2B) is 31.6 nM.
Turning to `Cc1csc(-c2cnc3c(C)cn(CC(=O)N(C)C)c3c2)c1` [Example 573, N,N-Dimethyl-2-[3-methyl-6-(4-methyl-2-thienyl)pyrrolo[3,2-b]pyridin-1-yl]acetamide], under setting [1], the 50% inhibitory concentration (IC50) was 126 nM.
`Cc1ccc(-c2cnc3ccn(CC(=O)N4CCCC4)c3c2)s1` [Example 283, 2-[6-(5-Methyl-2-thienyl)pyrrolo[3,2-b]pyridin-1-yl]-1-pyrrolidin-1-yl-ethanone]: the concentration for half-maximal inhibition (IC50) (cloned human NR1/NR2B) was 200 nM.
For the compound `O=C(Cn1cc(F)c2ncc(-c3ccc(Cl)s3)cc21)N1CCC1` [Example 182, 1-(Azetidin-1-yl)-2-[6-(5-chloro-2-thienyl)-3-fluoro-pyrrolo[3,2-b]pyridin-1-yl]ethanone], the half-inhibitory concentration (IC50) (cloned human NR1/NR2B) is 3980 nM.
`Cc1cn(CC(=O)N2CCCC2)c2cc(-c3cc(F)cc(F)c3)cnc12` [Example 623, 2-[6-(3,5-Difluorophenyl)-3-methyl-pyrrolo[3,2-b]pyridin-1-yl]-1-pyrrolidin-1-yl-ethanone]: the IC50 under setting [1] is 15.8 nM.
`CCN(C)C(=O)Cn1ccc2ncc(-c3cc(F)c(F)c(F)c3)cc21` [Example 462, N-Ethyl-N-methyl-2-[6-(3,4,5-trifluorophenyl)pyrrolo[3,2-b]pyridin-1-yl]acetamide]: the IC50 under setting [1] is 126 nM.
Consider `Cc1cccc(-c2cnc3ccn(CC(=O)C4CC4)c3c2)c1` [Example 219, 1-Cyclopropyl-2-[6-(m-tolyl)pyrrolo[3,2-b]pyridin-1-yl]ethanone], for which the IC50 (cloned human NR1/NR2B) is 501 nM.
Regarding `CCc1ccc(-c2cnc3c(F)cn(CC(=O)N4CCC4)c3c2)s1` [Example 401, 1-(Azetidin-1-yl)-2-[6-(5-ethyl-2-thienyl)-3-fluoro-pyrrolo[3,2-b]pyridin-1-yl]ethanone], the IC50 under setting [1] was 631 nM.
Take `CCC(=O)Cn1cc(F)c2ncc(-c3cc(F)c(F)c(F)c3)cc21` [Example 334, 1-[3-Fluoro-6-(3,4,5-trifluorophenyl)pyrrolo[3,2-b]pyridin-1-yl]butan-2-one]: the IC50 (cloned human NR1/NR2B) is 25.1 nM.
Take `Cc1cn(CC(=O)N2CC(F)C2)c2cc(-c3cccc(C(F)(F)F)c3F)cnc12` [Example 589, 1-(3-Fluoroazetidin-1-yl)-2-[6-[2-fluoro-3-(trifluoromethyl)phenyl]-3-methyl-pyrrolo[3,2-b]pyridin-1-yl]ethanone]: the IC50 under setting [1] is 126 nM.
As to `O=C(Cn1cc(F)c2ncc(-c3ccc(F)c(F)c3)cc21)N1CC(F)C1` [Example 311, 2-[6-(3,4-Difluorophenyl)-3-fluoro-pyrrolo[3,2-b]pyridin-1-yl]-1-(3-fluoroazetidin-1-yl)ethanone], the concentration for half-maximal inhibition (IC50) (cloned human NR1/NR2B) is 63.1 nM.
Turning to `CCN(C)C(=O)Cn1cc(C)c2ncc(-c3ccc(F)c(C)c3)cc21` [Example 617, N-Ethyl-2-[6-(4-fluoro-3-methyl-phenyl)-3-methyl-pyrrolo[3,2-b]pyridin-1-yl]-N-methyl-acetamide], under setting [1], the IC50 was 50.1 nM.
As to `CC(=O)CCn1ccc2ncc(-c3ccc(F)cc3)cc21` [Example 340, 4-[6-(4-Fluorophenyl)pyrrolo[3,2-b]pyridin-1-yl]butan-2-one], the pIC50 (cloned human NR1/NR2B) amounted to 7.9.
`Cc1cccc(-c2cnc3c(Cl)cn(CC(=O)N4CC(F)(F)C4)c3c2)c1` [Example 53, 2-[3-Chloro-6-(m-tolyl)pyrrolo[3,2-b]pyridin-1-yl]-1-(3,3-difluoroazetidin-1-yl)ethanone]: the IC50 (cloned human NR1/NR2B) was 5010 nM.
In the case of `Cc1cccc(-c2cnc3c(F)cn(CC(=O)N4CC(F)C4)c3c2)c1F` [Example 483, 1-(3-Fluoroazetidin-1-yl)-2-[3-fluoro-6-(2-fluoro-3-methyl-phenyl)pyrrolo[3,2-b]pyridin-1-yl]ethanone], the 50% inhibitory concentration (IC50) under setting [1] was 63.1 nM.
In the case of `Cc1ccc(-c2cnc3ccn(CC(=O)N4CCC4)c3c2)s1` [Example 380, 1-(Azetidin-1-yl)-2-[6-(5-methyl-2-thienyl)pyrrolo[3,2-b]pyridin-1-yl]ethanone], the IC50 under setting [1] is 10 nM.
As to `Cc1cc(-c2cnc3c(F)cn(CC(=O)N4CC(F)(F)C4)c3c2)ccc1F` [Example 185, 1-(3,3-Difluoroazetidin-1-yl)-2-[3-fluoro-6-(4-fluoro-3-methyl-phenyl)pyrrolo[3,2-b]pyridin-1-yl]ethanone], the IC50 (cloned human NR1/NR2B) was 100 nM.
Still for that read-out and setting: the result for `Fc1ccc(-c2cnc3ccn(Cc4cncnc4)c3c2)cc1F` [Example 114, 6-(3,4-Difluorophenyl)-1-(pyrimidin-5-ylmethyl)pyrrolo[3,2-b]pyridine] reads more than 10000 nM.
On the same count and under the same terms, then `O=C(Cn1cc(Cl)c2ncc(-c3cc(F)c(F)c(F)c3)cc21)N1CCC1` [Example 301, 1-(Azetidin-1-yl)-2-[3-chloro-6-(3,4,5-trifluorophenyl)pyrrolo[3,2-b]pyridin-1-yl]ethanone], with 20 nM.
The same measure, in the same setting: the result for `O=C(Cn1ccc2ncc(-c3cccc(C(F)(F)F)n3)cc21)N1CC(F)(F)C1` [Example 117, 1-(3,3-Difluoroazetidin-1-yl)-2-[6-[6-(trifluoromethyl)-2-pyridyl]pyrrolo[3,2-b]pyridin-1-yl]ethanone] reads 5010 nM.
Regarding `Cc1cc(-c2cnc3c(C)cn(CC(=O)N4CC(F)C4)c3c2)ccc1F` [Example 580, 1-(3-Fluoroazetidin-1-yl)-2-[6-(4-fluoro-3-methyl-phenyl)-3-methyl-pyrrolo[3,2-b]pyridin-1-yl]ethanone], the IC50 under setting [1] was 79.4 nM.
In the case of `Cc1c(F)ccc(-c2cnc3c(C)cn(CC(=O)N4CC(F)C4)c3c2)c1F` [Example 629, 2-[6-(2,4-Difluoro-3-methyl-phenyl)-3-methyl-pyrrolo[3,2-b]pyridin-1-yl]-1-(3-fluoroazetidin-1-yl)ethanone], the concentration for half-maximal inhibition (IC50) under setting [1] is 39.8 nM.
On to `Cc1cc(-c2cnc3c(Cl)cn(CC(=O)N(C)C)c3c2)c(C)s1` [Example 599, 2-[3-Chloro-6-(2,5-dimethyl-3-thienyl)pyrrolo[3,2-b]pyridin-1-yl]-N,N-dimethyl-acetamide], for which the IC50 under setting [1] was 100 nM.
Still for that read-out and setting: then `O=C(Cn1cc(Cl)c2ncc(-c3cccc(F)c3)cc21)N1CC(F)C1` [Example 543, 2-[3-Chloro-6-(3-fluorophenyl)pyrrolo[3,2-b]pyridin-1-yl]-1-(3-fluoroazetidin-1-yl)ethanone], with 20 nM.
For the compound `O=C(Cn1ccc2ncc(-c3ccc(F)cc3)cc21)N1CCCC1` [Example 80, 2-[6-(4-Fluorophenyl)pyrrolo[3,2-b]pyridin-1-yl]-1-pyrrolidin-1-yl-ethanone], the IC50 (cloned human NR1/NR2B) was 316 nM.
In the case of `O=C(Cn1ccc2ncc(-c3cc(Cl)cs3)cc21)N1CC(F)C1` [Example 285, 2-[6-(4-Chloro-2-thienyl)pyrrolo[3,2-b]pyridin-1-yl]-1-(3-fluoroazetidin-1-yl)ethanone], where the note is “cloned human NR1/NR2B”, the IC50 was 158 nM.
Consider `O=C(Cn1cc(Br)c2ncc(-c3ccc(F)cc3)cc21)N1CCC1` [Example 18, 1-(Azetidin-1-yl)-2-[3-bromo-6-(4-fluorophenyl)pyrrolo[3,2-b]pyridin-1-yl]ethanone], for which the IC50 (cloned human NR1/NR2B) is 20 nM.
In the case of `Cc1ccc(-c2cnc3c(C)cn(CC(=O)N(C)C)c3c2)s1` [Example 637, N,N-Dimethyl-2-[3-methyl-6-(5-methyl-2-thienyl)pyrrolo[3,2-b]pyridin-1-yl]acetamide], the IC50 under setting [1] is 316 nM.
`CCc1cccc(-c2cnc3ccn(CC(=O)N(C)C)c3c2)c1` [Example 449, 2-[6-(3-Ethylphenyl)pyrrolo[3,2-b]pyridin-1-yl]-N,N-dimethyl-acetamide]: under setting [1], the IC50 is 63.1 nM.
`O=C(Cn1cc(F)c2ncc(-c3cccc(C(F)F)c3)cc21)N1CC(F)C1` [Example 310, 2-[6-[3-(Difluoromethyl)phenyl]-3-fluoro-pyrrolo[3,2-b]pyridin-1-yl]-1-(3-fluoroazetidin-1-yl)ethanone]: the IC50 (cloned human NR1/NR2B) is 50.1 nM.
For `O=C(Cn1cc(Cl)c2ncc(-c3cc(F)c(F)c(F)c3)cc21)N1CC(F)(F)C1` [Example 49, 2-[3-Chloro-6-(3,4,5-trifluorophenyl)pyrrolo[3,2-b]pyridin-1-yl]-1-(3,3-difluoroazetidin-1-yl)ethanone], the 50% inhibitory concentration (IC50) (cloned human NR1/NR2B) is 200 nM.
On to `O=C(Cn1cc(F)c2ncc(-c3cccs3)cc21)N1CCC1` [Example 389, 1-(Azetidin-1-yl)-2-[3-fluoro-6-(2-thienyl)pyrrolo[3,2-b]pyridin-1-yl]ethanone trifluoroacetate salt], for which the IC50 under setting [1] is 158 nM.
Take `Cc1cc(Cn2ccc3ncc(-c4cccc(C(F)(F)F)c4)cc32)no1` [Example 60, 5-Methyl-3-[[6-[3-(trifluoromethyl)phenyl]pyrrolo[3,2-b]pyridin-1-yl]methyl]isoxazole]: the IC50 (cloned human NR1/NR2B) was 100 nM.
On to `O=C(Cn1ccc2ncc(-c3ccc(F)cc3)cc21)N1CC(O)C1` [Example 211, 2-[6-(4-Fluorophenyl)pyrrolo[3,2-b]pyridin-1-yl]-1-(3-hydroxyazetidine-1-yl)ethanone], for which, for the setting “cloned human NR1/NR2B”, the IC50 is 398 nM.
`Cc1cccc(-c2cnc3cc(C)n(CC(=O)N4CCOCC4)c3c2)c1` [Example 45, 2-[2-Methyl-6-(m-tolyl)pyrrolo[3,2-b]pyridin-1-yl]-1-morpholino-ethanone]: the IC50 (cloned human NR1/NR2B) was 501 nM.
Consider `O=C(Cn1cc(Cl)c2ncc(-c3cncc(C(F)(F)F)c3)cc21)NC1CC1` [Example 244, 2-[3-Chloro-6-[5-(trifluoromethyl)-3-pyridyl]pyrrolo[3,2-b]pyridin-1-yl]-N-cyclopropyl-acetamide trifluoroacetate salt], for which, where the note is “cloned human NR1/NR2B”, the 50% inhibitory concentration (IC50) was 631 nM.
